Assays:
PAP f39 (PAP248-286) [1] = target: T1, PAP f39 (PAP248-286) (Homo sapiens, UniProt P15309); assay: ThT fluorescence aggregation assay; type: biochemical; details: PBS pH 7.3, 37 °C, 1200 rpm, 96 h; 0.44 mM PAP f39, 0.022 mM NQTrp; inhibition of fibril formation
T1 construct: gene ACP3; synthetic 39-residue peptide fragment 248-286 (GL Biochem), N-terminal Gly, C-terminal Tyr, HFIP-pretreated monomer; 2L3H is only the docking structure of this peptide
T1 sequence (P15309 248-286): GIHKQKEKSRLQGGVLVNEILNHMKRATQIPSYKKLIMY

PAP f39 (PAP248-286) [2] = target: T1, PAP f39 (PAP248-286); assay: isothermal titration calorimetry; type: binding

Structure (SMILES): O=C1C=C(N[C@@H](Cc2c[nH]c3ccccc23)C(=O)O)C(=O)c2ccccc21 [NQTrp]
- % amyloid inhibition at 20:1 (PAP f39:NQTrp) (PAP f39 (PAP248-286) [1]): ~ 70%
- Kd (PAP f39 (PAP248-286) [2]): 5.94 ± 1.26 µM
